Source: patent US5143931A, “Leukotriene antagonists containing tetrazolyl groups” (SmithKline Beecham Corporation, priority 1990, dated 1992)
Structures can show the parent of a compound that is named as a salt.

target: T1, leukotriene induced contraction of guinea pig tracheal tissues (Cavia porcellus, UniProt Q2NNR5); experiment: Inhibition of leukotriene (LTD4) induced contraction of guinea pig tracheal spiral strips in vitro; conditions: LTD4 concentration-response curves on guinea pig tracheal strips, 30 minutes pretreatment with test compound; current average where tested more than once; read-out: In Vitro -Log K8 (converted)
T1 sequence (Q2NNR5 1-340): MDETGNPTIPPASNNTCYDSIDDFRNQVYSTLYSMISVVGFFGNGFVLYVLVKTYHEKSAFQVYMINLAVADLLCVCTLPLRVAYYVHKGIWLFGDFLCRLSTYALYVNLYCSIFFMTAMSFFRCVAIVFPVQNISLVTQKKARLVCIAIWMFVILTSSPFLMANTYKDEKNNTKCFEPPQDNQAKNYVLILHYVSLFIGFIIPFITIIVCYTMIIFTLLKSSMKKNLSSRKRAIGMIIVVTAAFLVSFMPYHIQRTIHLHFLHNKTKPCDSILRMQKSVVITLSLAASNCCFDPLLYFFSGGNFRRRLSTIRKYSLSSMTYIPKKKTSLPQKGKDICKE

SMILES	Kd [nM]
O=C(O)CCCn1nnnc1SC(C(=O)O)c1ccccc1CCCCCCCCc1ccccc1 (stereo not drawn) [dipotassium salt hydrate]	1000
CCCCCCCCCCCCc1ccccc1C(Sc1nnnn1C)C(=O)O (stereo not drawn) [5-tetrazolyl, 0,1-CH3, C12 H25, CO2 H, 2-(2-Dodecylphenyl)-2[(1-methyl-5-tetrazolyl)thio]acetic acid]	1580
CCCCCCCCCCCCc1ccccc1C(Sc1nnnn1CC(=O)O)C(=O)O (stereo not drawn) [2(2-Dodecylphenyl)-2[(1-carboxymethyl-5-tetrazolyl)thio]acetic acid]	794
